Experimental data: patent publication US20260007612A1, “Novel Ionizable Cationic Lipids” (Vivasor, Inc., priority 2022, published 2026)

Legend:
[1] = Lipid nanoparticle characterization (size, PDI, zeta potential, encapsulation efficiency); assay type: physicochemical; settings: Fresh samples; LNP of named lipid:DSPC:Cholesterol:GM020=50:10:38.5:1.5 (DS-001 25:10:38.5:1.5); 250 μg mRNA
Experimental: Lipid nanoparticles were prepared with the following compositions: • ALC-0315:DSPC:Cholesterol:GM020=50:10:38.5:1.5 (and buffer) (positive control) • TU-001:DSPC:Cholesterol:GM020=50:10:38.5:1.5 (and buffer) • TU-002:DSPC:Cholesterol:GM020=50:10:38.5:1.5 (and buffer) • TU-003:DSPC:Cholesterol:GM020=50:10:38.5:1.5 (and buffer) • TU-004:DSPC:Cholesterol:GM020=50:10:38.5:1.5 (and buffer) • TU-005:DSPC:Cholesterol:GM020=50:10:38.5:1.5 (and buffer) • TU-006:DSPC:Cholesterol:GM020=50:10:38.5:1.5 (and buffer) • TU-007:DSPC:Cholesterol:GM020=50:10:38.5:1.5 (and buffer) • TU-008:DSPC:Cholesterol:GM020=50:10:38.5:1.5 (and buffer) • TU-009:DSPC:Cholesterol:GM020=50:10:38.5:1.5 (and buffer) • BAE-001:DSPC:Cholesterol:GM020=50:10:38.5:1.5 (and buffer) • BAA-001:DSPC:Cholesterol:GM020=50:10:38.5:1.5 (and buffer) • DS-001:DSPC:Cholesterol:GM020=25:10:38.5:1.5 (and buffer) • KT-001:DSPC:Cholesterol:GM020=50:10:38.5:1.5 (and buffer) • Where buffer is water, Trehalose, Tris Base, sodium chloride. DSPC is 1,2-distearoyl-sn-glycero-3-phosphocholine. GM020 is DMG-PEG (1,2-Dimyristoyl-rac-glycero-3-methylpolyoxyethylene).
Table 1 summarizes the lipid nanoparticle characterization with respect to various parameters including nanoparticle size (Z avg), polydispersity index (PDI), charge (Zeta potential), encapsulation efficiency and yield.

female Balb/c mice = assay: In vivo efficacy of SARS-CoV-2 Spike mRNA in lipid nanoparticle formulation: serum anti-Spike IgG by ELISA; settings: FIGS. 1C-D, intramuscular, 28 days following injection

SMILES	Encapsulation Efficiency [1]	PDI [1]	Z Avg. [1]	Zeta Potential [1]	amount of anti-Spike antibody (of SARS-CoV-2) produced in mice (female Balb/c mice)
CCCCCCCCC(CCCCCC)C(=O)OCCCCCCN(CCCCO)CCCCCCOC(=O)C(CCCCCC)CCCCCCCC (stereo not shown) [ALC-0315, reference compound]	83.16%	0.223	78.67 nm	−4.74 mV	
CCCCCCCCC(CCCCCC)C(=O)OCCCCCCN(CCCCO)CCC(=O)OCCCCOC(=O)CCN(CCCCO)CCCCCCOC(=O)C(CCCCCC)CCCCCCCC (stereo not shown) [BAE-001]	83.32%	0.141	111.7 nm	−0.28 mV	
CCCCCCCCC(CCCCCC)C(=O)OCCCCCCN(CCCCCCOC(=O)C(CCCCCC)CCCCCCCC)CCCCNC(=O)OCCSSCCOC(=O)NCCCCN(CCCCCCOC(=O)C(CCCCCC)CCCCCCCC)CCCCCCOC(=O)C(CCCCCC)CCCCCCCC (stereo not shown) [DS-001]	84.50%	0.12	63.0 nm	−3.74 mV	
CCCCCCCCCC1(CCCCCC)OCC(CCCCN(CCCCO)CCCCC2COC(CCCCCC)(CCCCCCCCC)O2)O1 (stereo not shown) [KT-001]	80.60%	0.08	84.7 nm	−3.30 mV	largest amounts
CCCCCCCCC(CCCCCC)C(=O)OCCCN(CCCOC(=O)C(CCCCCC)CCCCCCCC)C(=S)NCCCN1CCOCC1 (stereo not shown) [TU-002]	80.64%	0.133	76.99 nm	−2.55 mV	
CCCCCCCCC(CCCCCC)C(=O)OCCCN(CCCOC(=O)C(CCCCCC)CCCCCCCC)C(=S)NCCCN1CCCCC1C (stereo not shown) [TU-003]	90.47%	0.23	73.29 nm	−0.56 mV	
CCCCCCCCC(CCCCCC)C(=O)OCCCN(CCCOC(=O)C(CCCCCC)CCCCCCCC)C(=S)NCCCN1CCN(C)CC1 (stereo not shown) [TU-004]	72.53%	0.24	79.77 nm	−1.27 mV	
CCCCCCCCC(CCCCCC)C(=O)OCCCN(CCCOC(=O)C(CCCCCC)CCCCCCCC)C(=S)NCCCN (stereo not shown) [TU-005]	97.66%	0.282	176.9 nm	−0.842 mV	
CCCCCCCCC(CCCCCC)C(=O)OCCCN(CCCOC(=O)C(CCCCCC)CCCCCCCC)C(=S)NCCCN(CC)CC (stereo not shown) [TU-006]	81.48%	0.278	68.84 nm	−0.642 mV	
CCCCCCCCC(CCCCCC)C(=O)OCCCN(CCCOC(=O)C(CCCCCC)CCCCCCCC)C(=S)NCCCN(CCC)CCC (stereo not shown) [TU-007]	78.96%	0.156	63.30 nm	−2.68 mV	
CCCCCCCCC(CCCCCC)C(=O)OCCCN(CCCOC(=O)C(CCCCCC)CCCCCCCC)C(=S)NCCCNC(C)C (stereo not shown) [TU-008]	97.75%	0.253	64.64 nm	−1.07 mV	
CCCCCCCCC(CCCCCC)C(=O)OCCCN(CCCOC(=O)C(CCCCCC)CCCCCCCC)C(=S)NCCCN(CCCC)CCCC (stereo not shown) [TU-009]	80.76%	0.188	64.82 nm	−4.40 mV	
